Measurements: US7635686B2, “Therapeutically useful triethyleneglycol cholesteryl oligonucleotides” (Bioniche Life Sciences, Inc., priority 2001, dated 2009)
{TEG-Chol} = cholesteryl attached through a triethylene glycol (TEG) linker

Key:
MCF-7 cells = assay: Treatment of pre-formed 3-dimensional MCF-7 structures on MATRIGEL; assay type: cell-based, human; conditions: MCF-7, 53 μM, repeated every 3-4 days up to 19-20 days, FIG. 3
Experimental: MCF-7 cells were cultured in regular culture medium (RCM), trypsinized and counted. 150×10^3 of MCF-7 cells, in wells of 24-well plates coated with 350 μl of MATRIGEL®. After the formation of 3-dimensional structures during 48 hrs without any treatment, the medium was changed and the structures were exposed to a final concentration of 53 μM of SEQ ID NO:3, 53 μM of SEQ ID NO:7, 53 μM of cholesteryl-TEG phosphoramidite, RCM or their respective control media (RCM with water, RCM with DMSO, or RCM with acetonitrile). The treatments were repeated every 3-4 days until a maximum time in culture of 19-20 days. The experiment was repeated three times. Digital photographs of the cells in the 24-well plates were taken using a Nikon Coolpix 990 digital camera connected to a Nikon inverted microscope model TMS.

EL-4 cells [1] = assay: Cleavage of poly(ADP-ribose) polymerase in EL-4 cells (FITC-antibody flow cytometry); assay type: cell-based, murine; conditions: 53 μM, 72 h; for Percentage of cells containing cleaved PARP: EL-4 cells, untreated 1
Experimental: EL-4 cells (2.5×10^5 cells/ml) were incubated for 72 h with 0 μM (control), 53 μM of SEQ ID NO:3 or 53 μM of SEQ ID NO:7. After incubation, both control and treated cells were washed, fixed, permeabilized and incubated with an FITC-conjugated antibody that recognizes specifically the 85 kDa fragments of cleaved PARP (BioSource, Camarillo, Calif., USA) using the conditions recommended by the manufacturer. Fluorescence associated with cleaved PARP was analyzed by flow cytometry on a FACSCalibur using the program CellQUEST (both from Becton Dickinson). The percentage of cells containing cleaved PARP in EL-4 cells treated with 53 μM final concentration of sequences is shown in Table 5.

EL-4 cells [2] = assay: Activation of caspase 3 in EL-4 cells (PE-antibody flow cytometry); assay type: cell-based, murine; conditions: 53 μM, 72 hrs; for Percentage of cells containing activated caspase-3: EL-4 cells, untreated 3
Experimental: EL-4 cells (2.5×10^5 cells/ml) were incubated for 72 hrs with 0 μM (control), 53 μM of SEQ ID NO:3 or 53 μM of SEQ ID NO:7. After incubation, both control and treated cells were washed, fixed, permeabilized and incubated with a Phycoerythrin (PE)-conjugated antibody that recognizes the active catalytic unit of caspase 3 (Clone: C92-605; BD Pharmingen, San Diego, Calif., USA) using the conditions recommended by the manufacturer. Fluorescence associated with active caspase 3 was analyzed by flow cytometry on a FACSCALIBUR using the program CellQUEST (both from Becton Dickinson, San Jose, Calif., USA).

[3] = system: EL-4 murine T lymphoma cells; assay: EL-4 lymphoma implanted subcutaneously in C57/BL6 mice; assay type: in vivo; conditions: 1, 10, 100 mg/kg, after 4 weeks of treatment; versus saline and SEQ ID NO:3; dose-dependent
Experimental: EL-4 murine T lymphoma cells are implanted subcutaneously into C57/BL6 mice as previously described (Krawczyk et al., Cancer Immunol. Immunother. 40:347, 1995). The mice are divided into 7 groups of 10 mice. On day 0, group 1 mice receive saline, group 2 mice receive 1 mg/kg SEQ ID NO:3, group 3 mice receive 10 mg/kg SEQ ID NO:3, group 4 mice receive 100 mg/kg SEQ ID NO:3, group 5 mice receive 1 mg/kg SEQ ID NO:7, group 6 mice receive 10 mg/kg SEQ ID NO:7, group 7 mice receive 100 mg/kg SEQ ID NO:7. After 4 weeks of treatment, the mice are sacrificed and tumor mass is determined.

MDA-MB-231 cells [4] = assay: MDA-MB-231 xenotransplanted tumors in nude mice (Example 23); assay type: in vivo; conditions: 0.4, 4, 40 mg/kg intravenously every 3 days, 6 doses maximum; versus saline and SEQ ID NO:3; dose-dependent
Experimental: Breast cancer MDA-MB-231 cells are xenotransplanted subcutaneously in nude mice (1×10^7 cells). The mice are divided into 7 groups of 10 mice. After the tumors reach […] in diameter, group 1 mice receive saline, group 2 mice receive 0.4 mg/kg SEQ ID NO:3, group 3 mice receive 4 mg/kg SEQ ID NO:3, group 4 mice receive 40 mg/kg SEQ ID NO:3, group 5 mice receive 0.4 mg/kg SEQ ID NO:7, group 6 mice receive 4 mg/kg SEQ ID NO:7, group 7 mice receive 40 mg/kg SEQ ID NO:7. Treatments are given intravenously every 3 days for 6 doses maximum. Mice are sacrificed when tumor reach 1 cm in diameter, at any sign of distress or at the end of the study (3 months from cell injection). Complete autopsies are performed. Tumor mass, presence of invasion and metastasis are determined.

MDA-MB-231 cells [5] = assay: MDA-MB-231 xenotransplanted tumors in nude mice (Example 22); assay type: in vivo; conditions: 0.5, 5, 50 mg/kg intravenously every 3 days, 6 doses maximum; versus saline and SEQ ID NO:3; dose-dependent
Experimental: MDA-MB-231 cells are xenotransplanted subcutaneously into nude mice. The mice are divided into 7 groups of 10 mice. After the tumors reach 5 mm in diameter, group 1 mice receive saline, group 2 mice receive 0.5 mg/kg SEQ ID NO:3, group 3 mice receive 5 mg/kg SEQ ID NO:3, group 4 mice receive 50 mg/kg SEQ ID NO:3, group 5 mice receive 0.5 mg/kg SEQ ID NO:7, group 6 mice receive 5 mg/kg SEQ ID NO:7, group 7 mice receive 50 mg/kg SEQ ID NO:7. Treatments are given intravenously every 3 days for 6 doses maximum. Mice are sacrificed when tumor reach 1 cm in diameter, at any sign of distress or at the end of the study (3 months from cell injection). Complete autopsies are performed. Tumor mass, presence of invasion and metastasis are determined.

Substance	Effect on pre-formed 3-dimensional structures on MATRIGEL (MCF-7 cells)	Cleavage of PARP in EL-4 cells (in words) (EL-4 cells [1])	Percentage of cells containing cleaved PARP (EL-4 cells [1])	Activation of caspase-3 in EL-4 cells (in words) (EL-4 cells [2])	Percentage of cells containing activated caspase-3 (EL-4 cells [2])	Tumor mass [3]	Tumor mass and metastasis (MDA-MB-231 cells [4])	Tumor mass (MDA-MB-231 cells [5])
5′ OH-CCACCC-OH 3′ (listed as DNA, chemistry not fully specified) [SEQ ID NO:3]	did not affect the 3-dimensional structures	inactive	1%	inactive	4%	–	–	–
5′ OH-CCACCC(TEG-cholesteryl) 3′ (3' {TEG-Chol}, sugars by position and backbone not given here) [SEQ ID NO:7]	disrupted the growth pattern of the structures	capacity to induce apoptosis as measured by cleavage of PARP	84%	capacity to induce apoptosis as measured by the activation of caspase-3	38%	less tumor mass	less tumor mass and metastasis	less tumor mass
